{
  "source": "patent US10828300B2",
  "about": "“Substituted 2,4-diaminopyrimidines as kinase inhibitors” (Celgene CAR LLC, priority 2008, dated 2020)",
  "key": {"BTK [1]": {"biological_target": "T1, BTK (Homo sapiens (Human), UniProt Q06187)", "T1 sequence (Q06187 whole entry)": "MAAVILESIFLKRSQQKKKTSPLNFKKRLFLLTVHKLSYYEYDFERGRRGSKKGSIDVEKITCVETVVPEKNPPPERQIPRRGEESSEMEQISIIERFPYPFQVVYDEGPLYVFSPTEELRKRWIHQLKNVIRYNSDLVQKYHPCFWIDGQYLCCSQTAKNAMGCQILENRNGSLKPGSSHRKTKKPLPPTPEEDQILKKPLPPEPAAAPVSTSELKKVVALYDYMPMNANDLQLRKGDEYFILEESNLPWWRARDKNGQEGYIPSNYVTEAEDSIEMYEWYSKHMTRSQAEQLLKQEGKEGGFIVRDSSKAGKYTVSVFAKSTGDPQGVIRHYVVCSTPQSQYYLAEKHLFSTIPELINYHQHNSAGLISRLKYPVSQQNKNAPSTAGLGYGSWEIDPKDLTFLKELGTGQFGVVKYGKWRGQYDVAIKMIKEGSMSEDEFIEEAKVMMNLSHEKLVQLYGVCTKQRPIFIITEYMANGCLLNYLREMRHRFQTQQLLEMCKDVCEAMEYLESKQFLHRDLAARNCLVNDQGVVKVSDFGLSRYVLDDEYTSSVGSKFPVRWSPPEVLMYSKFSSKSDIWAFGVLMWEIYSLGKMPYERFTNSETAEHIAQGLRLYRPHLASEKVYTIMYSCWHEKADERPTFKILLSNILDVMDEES", "test": "Washout experiment with Ramos cells (PLCγ2 phosphorylation)", "format": "cell-based", "conditions": "Ramos washout assay, 100 nM compound for 1 hour", "method": "Washout Experiment with Ramos Cells\nRamos cells were serum starved for one hour in RPMI media +1% glutamine at 37° C. After starvation, Ramos cells were treated with 100 nM compound diluted in serum free RPMI media for 1 hour. After compound treatment, the media was removed and cells were washed with compound-free media. Subsequently, Ramos cells were washed every 2 hours and resuspended in fresh compound-free media. Cells were collected at specified timepoints, treated with 1 ug anti-human IgM (Southern Biotech cat #2022-01) for 10 minutes on ice to induce BCR signaling and then washed in PBS. Ramos cells were then lysed in Cell Extraction Buffer (Invitrogen FNN0011) supplemented with Roche complete protease inhibitor tablets (Roche 11697498001) and phosphatase inhibitors (Roche 04 906 837 001) and 18 ug total protein lysate was loaded in each lane. Inhibition of BTK kinase activity was assayed by measuring its substrate (PLCγ2) phosphorylation by western blot with phospho-specific antibodies from Cell Signaling Technologies cat#3871. The results of this experiment with compounds I-2, I-4 and I-7 are depicted in FIGS. 1, 2 and 3."}, "BTK [2]": {"biological_target": "T1, BTK", "test": "Mass spectrometry for BTK (intact protein, covalent modification)", "format": "binding", "conditions": "intact BTK, 1 hr, 10× fold excess of compound", "method": "Mass Spectrometry for BTK\nIntact BTK was incubated for 1 hr at a 10× fold excess of I-7 to protein. Aliquots (2 μl) of the samples were diluted with 10 μl of 0.1% TFA prior to micro C4 ZipTipping directly onto the MALDI target using Sinapinic acid as the desorption matrix (10 mg/ml in 0.1% TFA:Acetonitrile 20:80)."}, "BTK [3]": {"biological_target": "T1, BTK", "test": "BTK occupancy from in vitro samples by ELISA (Ramos cells, probe I-215)", "format": "cell-based", "conditions": "probe I-215 ELISA", "description": "Measuring BTK occupancy from in vitro samples by ELISA\nIn order to determine the amount of free BTK in cell or tissue lysates, an ELISA protocol was employed that utilizes a biotinylated probe compound that binds only to free, unoccupied BTK. The conjugated biotin is captured on a streptavidin-coated ELISA plate and detected with a mouse anti-BTK antibody (Becton Dickinson, Franklin Lakes, N.J., USA) and a secondary goat anti-mouse HRP antibody (Zymed, South San Francisco, Calif., USA).\nAll samples were prepared with equal concentrations of Biorad lysis buffer (Hercules, Calif., USA), 0.5% bovine serum albumin in PBS with 0.05% Tween-20 to give a final concentration of 1 μM I-215. Samples were incubated in a mixing plate for 1 hr at room temperature while shaking to allow probe compound I-215 to bind to free BTK. After incubation with I-215, samples were added to a washed, streptavidin-coated ELISA plate (Pierce, Rockford, Ill., USA) and incubated for 1 hr at room temperature while shaking. The plate was then washed with PBS containing 0.05% Tween-20 using an automatic plate washer. Anti-BTK antibody was prepared at 1:1000 dilution in 0.5% BSA in PBS (0.05% Tween-20) and added to the ELISA plate. The plate was incubated for 1 hr at room temperature while shaking. The plate was washed as described above and the secondary HRP antibody was prepared at 1:5000 dilution in 0.5% BSA in PBS (0.05% Tween-20). The plate was incubated and washed as described above. TMB was added to the plate, and OD650 was monitored until reaching 1 OD unit. The reaction was then stopped with addition of H2SO4. The plate was analyzed using Gen 5 software, and a 4 Parameter Logistic curve was employed to quantitate samples. Recombinant BTK (Invitrogen, Carlsbad, Calif., USA) was used for the standard curve.\nA concentration designated as “A” is greater than 1 nM; a concentration designated as “B” is greater than 10 nM; and a concentration designated as “C” is greater than 50 nM."}},
  "data": [
    {"compound": "C=CC(=O)Nc1cccc(Nc2nc(Nc3cccc(OC)c3)ncc2C(F)(F)F)c1", "note": "[Compound I-242, N-(3-(5-trifluoromethyl-2-(3-methoxyphenylamino)pyrimidin-4-ylamino)phenyl)acrylamide]", "values": [
      {"measurement": "BTK Inhibition Type", "setting": "BTK [1]", "result": "irreversible"}
    ]},
    {"compound": "C=CC(=O)Nc1cccc(Nc2nc(Nc3ccc(F)cc3)ncc2F)c1", "note": "[Compound I-247, N-(3-(5-fluoro-2-(4-fluorophenylamino)pyrimidin-4-ylamino)phenyl)acrylamide]", "values": [
      {"measurement": "BTK Inhibition Type", "setting": "BTK [1]", "result": "irreversible"}
    ]},
    {"compound": "C=CC(=O)Nc1cccc(Nc2nc(Nc3ccccc3)ncc2C(N)=O)c1", "note": "[Compound I-230, 4-(3-acrylamidophenylamino)-2-(phenylamino)pyrimidine-5-carboxamide]", "values": [
      {"measurement": "BTK Inhibition Type", "setting": "BTK [1]", "result": "irreversible"}
    ]},
    {"compound": "Cc1cnc(Nc2ccccc2)nc1Nc1cccc(NC(=O)/C=C/CN(C)C)c1", "note": "[Compound I-38, (E)-4-(dimethylamino)-N-(3-(5-methyl-2-(phenylamino)pyrimidin-4-ylamino)phenyl)but-2-enamide]", "values": [
      {"measurement": "BTK Inhibition Type", "setting": "BTK [1]", "result": "reversible"}
    ]},
    {"compound": "CC(C)=CC(=O)c1cccc(Nc2nc(Nc3cccc(OCCN(C)C)c3)ncc2F)c1", "note": "[Compound I-207]", "values": [
      {"measurement": "covalent modification of BTK by mass spectrometry", "setting": "BTK [2]", "result": "completely modify"}
    ]},
    {"compound": "C=C(C#N)C(O)c1cccc(Nc2nc(Nc3ccc(OCCOC)cc3)ncc2F)c1", "note": "(centres unmarked) [Compound I-71, 2-((3-(5-fluoro-2-(4-(2-methoxyethoxy)phenylamino)pyrimidin-4-ylamino)phenyl)(hydroxy)methyl)acrylonitrile]", "values": [
      {"measurement": "covalent modification of BTK by mass spectrometry", "setting": "BTK [2]", "result": "completely modify"}
    ]},
    {"compound": "C=CC(=O)Nc1cccc(Nc2nc(Nc3ccc(OC)nc3)ncc2F)c1", "note": "[Compound I-243, N-(3-(5-fluoro-2-(6-methoxypyridin-3-ylamino)pyrimidin-4-ylamino)phenyl)acrylamide]", "values": [
      {"measurement": "BTK Inhibition Type", "setting": "BTK [1]", "result": "irreversible"}
    ]},
    {"compound": "C=C(C#N)C(O)c1ccc(Nc2nc(Nc3ccccc3)ncc2F)cc1", "note": "(centres unmarked) [Compound I-161, 2-((4-(5-fluoro-2-(phenylamino)pyrimidin-4-ylamino)phenyl)(hydroxy)methyl)acrylonitrile]", "values": [
      {"measurement": "covalent modification of BTK by mass spectrometry", "setting": "BTK [2]", "result": "completely modify"}
    ]},
    {"compound": "C#CCOc1cccc(Nc2ncc(C)c(Nc3cccc(NC(=O)C=C)c3)n2)c1", "note": "[Compound I-35, N-(3-(5-methyl-2-(3-(prop-2-ynyloxy)phenylamino)pyrimidin-4-ylamino)phenyl) acrylamide]", "values": [
      {"measurement": "BTK Inhibition Type", "setting": "BTK [1]", "result": "irreversible"}
    ]},
    {"compound": "2-((4-(5-fluoro-2-(3-trifluoromethoxyphenylamino)pyrimidin-4-ylamino)phenyl)(hydroxy)methyl)acrylonitrile [Compound I-163]", "values": [
      {"measurement": "covalent modification of BTK by mass spectrometry", "setting": "BTK [2]", "result": "completely modify"}
    ]},
    {"compound": "C=CC(=O)Nc1cccc(Nc2nc(Nc3ccccc3)ncc2F)c1", "note": "[Compound I-28, N-(3-(5-fluoro-2-(phenylamino)pyrimidin-4-ylamino)phenyl)acrylamide]", "values": [
      {"measurement": "BTK Inhibition Type", "setting": "BTK [1]", "result": "irreversible"}
    ]},
    {"compound": "C=CC(=O)Nc1cccc(Nc2nc(Nc3ccc(OCCOC)c(F)c3)ncc2F)c1", "note": "[Compound I-96, N-(3-(2-(3-fluoro-4-(2-methoxyethoxy)phenylamino)-5-fluoropyrimidin-4-ylamino)phenyl)acrylamide]", "values": [
      {"measurement": "concentration at which >50% of BTK is occupied", "setting": "BTK [3]", "result": "A (greater than 1 nM)"},
      {"measurement": "concentration at which >90% of BTK is occupied", "setting": "BTK [3]", "result": "B (greater than 10 nM)"},
      {"measurement": "covalent modification of BTK by mass spectrometry", "setting": "BTK [2]", "result": "completely modify"}
    ]},
    {"compound": "C=CC(=O)N1CCOc2ccc(Nc3ncc(F)c(Nc4cccc(Cl)c4)n3)cc21", "note": "[Compound I-149, 1-(6-(4-(3-chlorophenylamino)-5-fluoropyrimidin-2-ylamino)-2H-benzo[b][1,4]oxazin-4(3H)-yl)prop-2-en-1-one]", "values": [
      {"measurement": "covalent modification of BTK by mass spectrometry", "setting": "BTK [2]", "result": "completely modify"}
    ]},
    {"compound": "C=CC(=O)Nc1cccc(Oc2nc(Nc3ccccc3)ncc2F)c1", "note": "[Compound I-228, N-(3-(5-fluoro-2-(phenylamino)pyrimidin-4-yloxy)phenyl)acrylamide]", "values": [
      {"measurement": "BTK Inhibition Type", "setting": "BTK [1]", "result": "irreversible"}
    ]},
    {"compound": "C=CC(=O)Nc1cccc(Oc2nc(Nc3ccccc3)ncc2C)c1", "note": "[Compound I-248, N-(3-(5-methyl-2-(phenylamino)pyrimidin-4-yloxy)phenyl)acrylamide]", "values": [
      {"measurement": "BTK Inhibition Type", "setting": "BTK [1]", "result": "irreversible"}
    ]},
    {"compound": "C=CC(=O)Nc1cccc(Nc2nc(Nc3ccc(OCCOC)cc3)ncc2F)c1", "note": "[Compound I-182, N-(3-(5-fluoro-2-(4-(2-methoxyethoxy)phenylamino)pyrimidin-4-ylamino)phenyl)acrylamide]", "values": [
      {"measurement": "concentration at which >50% of BTK is occupied", "setting": "BTK [3]", "result": "A (greater than 1 nM)"},
      {"measurement": "concentration at which >90% of BTK is occupied", "setting": "BTK [3]", "result": "C (greater than 50 nM)"},
      {"measurement": "covalent modification of BTK by mass spectrometry", "setting": "BTK [2]", "result": "completely modify"}
    ]},
    {"compound": "C=CC(=O)N1CCC[C@@H](Nc2nc(Nc3cccc(OC)c3)ncc2F)C1", "note": "[Compound I-195, (R)-1-(3-(5-fluoro-2-(3-methoxyphenylamino)pyrimidin-4-ylamino)piperidin-1-yl)prop-2-en-1-one]", "values": [
      {"measurement": "covalent modification of BTK by mass spectrometry", "setting": "BTK [2]", "result": "completely modify"}
    ]},
    {"compound": "C=CC(=O)Nc1cccc(Nc2nc(Nc3cccc(OC(F)(F)F)c3)ncc2F)c1", "note": "[Compound I-244, N-(3-(5-fluoro-2-(3-(trifluoromethoxy)phenylamino)pyrimidin-4-ylamino)phenyl)acrylamide]", "values": [
      {"measurement": "covalent modification of BTK by mass spectrometry", "setting": "BTK [2]", "result": "completely modify"}
    ]},
    {"compound": "C=CC(=O)N(C)Cc1ccc(Nc2nc(Nc3ccccc3)ncc2C)cc1", "note": "[Compound I-219, N-methyl-N-(4-(5-methyl-2-(phenylamino)pyrimidin-4-ylamino)benzyl)acrylamide]", "values": [
      {"measurement": "covalent modification of BTK by mass spectrometry", "setting": "BTK [2]", "result": "completely modify"}
    ]}
  ]
}
